How the values were obtained:
Format in all cases: in vivo
[1] = system: Echinochloa crus-galli (ECHCG); experiment: A. Herbicidal pre-emergence efficacy, ECHCG; conditions: scored visually after about 3 weeks vs untreated controls
In short: (§1)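 Applied before emergence onto covering soil at rates of 1280 g/ha or less, using 600 L/ha spray water with 0.5% additive. Scoring: visual % efficacy after ~3 weeks, greenhouse.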

[2] = system: Amaranthus retroflexus (AMARE); experiment: A. Herbicidal pre-emergence efficacy, AMARE
In short: as §1

[3] = system: Digitaria sanguinalis (DIGSA); experiment: B. Herbicidal post-emergence efficacy, DIGSA; conditions: rated visually after about 3 weeks
In short: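 Readout: visual % kill vs untreated, ~3 wk post-spray. Plants in sandy loam pots, treated at one-leaf stage; spray = WP/EC in water + 0.5% additive, 600 L/ha, dose ≤1280 g/ha.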

[4] = system: Digitaria sanguinalis (DIGSA); experiment: C. Herbicidal pre-emergence efficacy, DIGSA; conditions: scored after about 3 weeks
In short: (§2)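 Pre-emergence test: formulated compounds sprayed as aqueous suspension or emulsion with 0.5% additive at 600 l/ha onto soil covering sown seeds, at rates corresponding to 320 g/ha or less. After about 3 weeks in greenhouse, efficacy scored visually as percent versus untreated controls (100% = plants dead).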

[5] = system: Echinochloa crus-galli (ECHCG); experiment: C. Herbicidal pre-emergence efficacy, ECHCG; conditions: scored after about 3 weeks
In short: as §2

[6] = system: Veronica persica (VERPE); experiment: C. Herbicidal pre-emergence efficacy, VERPE; conditions: scored after about 3 weeks
In short: as §2

[7] = system: Triticum aestivum (TRZAS); experiment: D. Pre-emergence effect on useful plants, TRZAS; conditions: useful plant
In short: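 Seeds sown in pots and covered with soil; WP or EC formulations sprayed on the soil surface as aqueous suspension/emulsion with 0.5% additive at 600 l/ha water. Plants grown in greenhouse; crop damage scored visually after about 3 weeks as % versus untreated controls (100% = dead, 0% = like control).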

[8] = system: Abutilon theophrasti (ABUTH); experiment: E. Herbicidal post-emergence efficacy, ABUTH
In short: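 Compounds applied at 320 g/ha or less as a foliar spray (600 l/ha, 0.5% additive) to one-leaf-stage greenhouse plants grown in sandy loam. Damage is visually scored in percent relative to untreated plants after about 3 weeks.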

[9] = system: Abutilon theophrasti (ABUTH); experiment: C. Herbicidal pre-emergence efficacy, ABUTH; conditions: scored after about 3 weeks
In short: as §2

| Structure (SMILES) | Pre-emergence efficacy against ECHCG ([1]; 320 g/ha) | Pre-emergence efficacy against ECHCG ([1]; 1280 g/ha) | Pre-emergence efficacy against AMARE in % ([2]; 80 g/ha) | Pre-emergence efficacy against AMARE in % ([2]; 320 g/ha) | Pre-emergence efficacy against AMARE in % ([2]; 1280 g/ha) | Post-emergence efficacy against DIGSA in % ([3]; 320 g/ha) | Post-emergence efficacy against DIGSA in % ([3]; 1280 g/ha) | Pre-emergence efficacy against DIGSA ([4]; 80 g/ha) | Pre-emergence efficacy against DIGSA ([4]; 320 g/ha) | Pre-emergence efficacy against ECHCG ([5]; 320 g/ha) | Pre-emergence efficacy against VERPE ([6]; 320 g/ha) | Pre-emergence efficacy against TRZAS in % ([7]; application rate 80 g/ha) | Pre-emergence efficacy against TRZAS in % ([7]; application rate 320 g/ha) | Post-emergence efficacy against ABUTH in % ([8]; application rate 320 g/ha) | Pre-emergence efficacy against ABUTH ([9]; 320 g/ha) | Pre-emergence efficacy against ECHCG ([5]; 80 g/ha) | Pre-emergence efficacy against VERPE ([6]; 80 g/ha) | Pre-emergence efficacy against ABUTH ([9]; 80 g/ha) | Post-emergence efficacy against ABUTH in % ([8]; application rate 80 g/ha) | Pre-emergence efficacy against ECHCG ([1]; 80 g/ha) |
| --- | --- | --- | --- | --- | --- | --- | --- | --- | --- | --- | --- | --- | --- | --- | --- | --- | --- | --- | --- | --- |
| CCCCCS(=O)(=O)Oc1ccccc1Oc1ncc(Cl)cn1 [Example I-24] | 100% | 100% | 90% | 100% | 100% | 90% | 90% | 90% | 100% | 100% | 90% | 0% | 0% | 90% |  |  |  |  |  |  |
| CC(C)CCS(=O)(=O)Oc1ccccc1Oc1ncc(Cl)cn1 [Example I-25] | 100% | 100% | 90% | 100% | 100% | 90% | 100% | 100% | 100% | 100% | 100% | 0% | 0% | 80% | 100% | 100% | 80% |  |  |  |
| O=S(=O)(CCCC(F)(F)F)Oc1c(F)cccc1Oc1ncc(Br)cn1 [Example I-41] | 100% | 100% | 100% | 100% | 100% | 90% | 90% | 100% | 100% | 100% | 100% | 20% |  | 100% | 100% | 100% | 100% | 100% | 90% |  |
| O=S(=O)(CCC1CC1)Oc1c(F)cccc1Oc1ncc(Cl)cn1 [Example I-55] | 100% | 100% | 100% | 100% | 100% | 90% | 90% | 100% | 100% | 100% | 100% | 0% |  | 100% |  | 90% |  |  |  |  |
| O=S(=O)(CCC(F)=C(F)F)Oc1c(Cl)cccc1Oc1ncc(Cl)cn1 [Example I-73] |  | 90% | 90% | 100% | 100% | 90% | 100% |  | 100% | 90% | 80% | 0% | 20% | 80% | 90% |  |  |  |  |  |
| O=S(=O)(CCC(F)(F)F)Oc1c(Cl)cccc1Oc1ncc(Br)cn1 [Example I-32] |  | 100% | 90% | 90% | 100% | 90% | 100% |  | 100% | 90% | 100% | 0% | 10% | 80% | 100% |  | 80% | 90% | 80% |  |
| O=S(=O)(CCCC(F)(F)C(F)(F)F)Oc1c(F)cccc1Oc1ncc(Cl)cn1 [Example I-68] | 90% | 100% |  | 100% | 100% | 90% | 100% | 100% | 100% | 90% | 90% | 0% | 10% | 90% | 100% |  | 90% | 100% |  |  |
| O=S(=O)(CCCC(F)(F)F)Oc1c(Cl)cccc1Oc1ncc(Br)cn1 [Example I-34] |  |  | 90% | 90% | 100% |  | 100% | 90% | 100% | 90% | 100% | 0% | 0% | 80% | 90% |  | 80% | 80% | 80% |  |
| O=S(=O)(CC1CC1)Oc1ccccc1Oc1ncc(Cl)cn1 [Example I-23] | 90% | 90% | 90% | 100% | 100% | 90% | 100% | 100% | 100% | 100% | 100% | 0% |  | 90% | 100% | 100% | 100% | 100% |  | 90% |
| Cc1cccc(Oc2ncc(Cl)cn2)c1OS(=O)(=O)CC1CC(F)(F)C1 [Example I-74] | 90% | 100% | 90% | 100% | 100% | 90% | 100% | 100% | 100% | 100% | 100% | 0% |  | 90% | 90% |  | 80% |  |  |  |
| Cc1cccc(OS(=O)(=O)CCCCl)c1Oc1ncc(Cl)cn1 [Example I-12] | 90% | 100% | 100% | 100% | 100% |  |  | 90% | 100% | 90% | 90% | 0% |  | 90% | 90% | 90% |  | 80% |  |  |
| O=S(=O)(CCC(F)(F)F)Oc1c(Cl)cccc1Oc1ncc(Cl)cn1 [Example I-38] | 90% | 100% | 100% | 100% | 100% |  | 90% | 100% | 100% | 100% | 100% | 0% |  | 100% | 100% | 100% | 100% | 100% |  |  |
| O=S(=O)(CCC(F)(F)F)Oc1ccccc1Oc1ncc(Cl)cn1 [Example I-8] | 90% | 100% | 90% | 90% | 100% |  |  | 100% | 100% | 100% | 100% | 20% |  | 100% | 100% | 100% | 100% | 100% | 90% | 90% |
